Reference: patent US10760110B2, “Antibiotic testing and screening system” (priority 2017, dated 2020)
≈ marks a conversion by molar mass, not a printed value. Read-outs that look alike come from different tables or passages of the source.

Columns and labels:
[1] = test system: K. pneumoniae NVT1001 and its ΔompK35/36 and/or ΔramR mutants; assay: Etest MIC, OmpK35/36 loss and AcrAB-TolC overexpression (ΔramR) strains (Table 6); assay type: cell-based, Klebsiella pneumoniae
Experimental: (§1) The MICs of antibiotics were determined using the Etest (Biodisk AB, Sweden) according to the manufacturer's instructions. The MICs from the Etest, which fall between standard two-fold dilutions, were rounded up to the next highest two-fold value. The MICs of ceftazidime and cefotaxime against K. pneumoniae NVT1001 harbouring the pACYC177 plasmid with blaOXA-48 were further determined using a broth microdilution test according to the recommendations of the CLSI,^25 and the results were interpreted according to the breakpoints established by the CLSI in 2017.^25 Meanwhile, due to the lack of CLSI breakpoints in 2016 and 2017, the results for cephalothin were interpreted according to the breakpoints established by the CLSI in 2015,^26 and the results for moxifloxacin were interpreted according to the breakpoints established by the EUCAST in 2017.^27

[2] = test system: K. pneumoniae NVT1001 ΔramRΔompK35/36 mutant and its revertants; assay: Etest MIC, ΔramRΔompK35/36 mutant and its revertants (Table 7); assay type: cell-based; settings: Klebsiella pneumoniae
From the text: The allelic-exchange method was used to restore the wild-type gene in the K. pneumoniae NVT1001 mutants with constructed chromosome-mediated resistance mechanisms, as described by Tsai et al.^19 Briefly, a DNA fragment of the entire wild-type gene sequence along with flanking regions was amplified from K. pneumoniae NVT1001 using PCR with specific primers. The resulting PCR fragment was digested and then cloned into pUT-KB. For homologous recombination, this plasmid was transformed into E. coli S17-1 λpir^23 via electroporation and mobilized into the K. pneumoniae NVT1001 mutant via conjugation. […] After incubation in 20 mL BHI broth for 6 hours at 37° C. in the absence of kanamycin, the fully grown cultures were spread onto LB agar plates supplemented with 10% sucrose. After the double crossover occurred, the sucrose-resistant and kanamycin-susceptible colonies were selected, and the restoration of the wild-type gene was confirmed via DNA sequencing.
as §1

[3] = Klebsiella pneumoniae, WT, NVT1001, read-out: MIC
[4] = Klebsiella pneumoniae, Δ35, ΔompK35 mutant
[5] = Klebsiella pneumoniae, Δ35/36, ΔompK35/36 mutant
[6] = Klebsiella pneumoniae, Δ36, ΔompK36 mutant
[7] = Klebsiella pneumoniae, ΔramR mutant
[8] = Klebsiella pneumoniae, ΔramRΔ35, ΔramRΔompK35 mutant
[9] = Klebsiella pneumoniae, ΔramRΔ35/36, ΔramRΔompK35/36 mutant
[10] = Klebsiella pneumoniae, ΔramRΔ36, ΔramRΔompK36 mutant

Compound	MIC [1, 3]	MIC [1, 4]	MIC [1, 5]	MIC [1, 6]	MIC [1, 7]	MIC [1, 8]	MIC [1, 9]	MIC [1, 10]	further results
O=C1CN(/N=C/c2ccc([N+](=O)[O-])o2)C(=O)N1 [Nitrofurantoin]	64 µg/mL (≈ 269 µM)	64 µg/mL (≈ 269 µM)	> 512 µg/mL	> 512 µg/mL	256 µg/mL (≈ 1070 µM)	256 µg/mL (≈ 1070 µM)	> 512 µg/mL	> 512 µg/mL	MIC ([2]; ΔramRΔompK35/36::ompK35/36 revertant): 256 µg/mL; MIC ([2]; ΔramRΔompK35/36::ompK35 revertant): > 512 µg/mL; MIC ([2]; ΔramRΔompK35/36::ompK36 revertant): 256 µg/mL; MIC ([2]; ΔramRΔompK35/36::ramR revertant): > 512 µg/mL; MIC ([2]; ΔramRΔompK35/36::ramR::ompK35/36 revertant): 64 µg/mL; MIC ([2]; ΔramRΔompK35/36::ramR::ompK35 revertant): > 512 µg/mL; MIC ([2]; ΔramRΔompK35/36::ramR::ompK36 revertant): 64 µg/mL; MIC ([2]; ΔramRΔompK35/36 mutant): > 512 µg/mL
NC[C@H]1O[C@H](O[C@H]2[C@H](O)[C@@H](O[C@H]3O[C@H](CO)[C@@H](O)[C@H](N)[C@H]3O)[C@H](N)C[C@@H]2N)[C@H](N)C[C@@H]1O [Tobramycin]	0.5 µg/mL (≈ 1.07 µM)	0.5 µg/mL (≈ 1.07 µM)	0.5 µg/mL (≈ 1.07 µM)	0.5 µg/mL (≈ 1.07 µM)	0.5 µg/mL (≈ 1.07 µM)	0.5 µg/mL (≈ 1.07 µM)	1 µg/mL (≈ 2.14 µM)	0.5 µg/mL (≈ 1.07 µM)	–
Gentamicin	–	–	–	–	–	–	–	–	MIC ([1]; WT, NVT1001): 0.5 µg/mL; MIC ([1]; Δ35, ΔompK35 mutant): 0.5 µg/mL; MIC ([1]; Δ35/36, ΔompK35/36 mutant): 0.5 µg/mL; MIC ([1]; Δ36, ΔompK36 mutant): 0.5 µg/mL; MIC ([1]; ΔramR mutant): 0.5 µg/mL; MIC ([1]; ΔramRΔ35, ΔramRΔompK35 mutant): 0.25 µg/mL; MIC ([1]; ΔramRΔ35/36, ΔramRΔompK35/36 mutant): 0.5 µg/mL; MIC ([1]; ΔramRΔ36, ΔramRΔompK36 mutant): 0.5 µg/mL
NC[C@H]1O[C@H](O[C@H]2[C@H](O)[C@@H](O[C@H]3O[C@H](CO)[C@@H](O)[C@H](N)[C@H]3O)[C@H](N)C[C@@H]2N)[C@H](O)[C@@H](O)[C@@H]1O [Kanamycin]	2 µg/mL (≈ 4.13 µM)	2 µg/mL (≈ 4.13 µM)	4 µg/mL (≈ 8.26 µM)	2 µg/mL (≈ 4.13 µM)	2 µg/mL (≈ 4.13 µM)	2 µg/mL (≈ 4.13 µM)	2 µg/mL (≈ 4.13 µM)	2 µg/mL (≈ 4.13 µM)	–
